Here are results for 9 molecules from US20160374944A1, “COMPOSITIONS AND METHODS FOR TREATING AND PREVENTING CANCER BY TARGETING AND INHIBITING CANCER STEM CELLS” (priority 2011, published 2016).

For test [1], the system named is Pancreatic CSCs. In words: apoptosis. The following applies: 48 h, annexin-PI, flow cytometer. The class given is cell-based, human. The method, then:
(A and B) Induction of apoptosis and activation of caspase-3/-7. Pancreatic CSCs were treated with rottlerin (0-2 μM) for 48 h, and apoptosis and caspase-3/-7 activity were measured by […] and colorometric assay, respectively. […] (C) Pancreatic CSCs were treated with rottlerin (0-1 μM) for 48 h, and the expression of Bcl-2, XIAP and Survivin was measured by qRT-PCR and normalized to GAPDH.
(§1) (A) Pancreatic CSCs were treated with SAHA (3 and 5 μM) and 5-Aza-dc (2 and 4 μM) and cell viability was measured at 48 h by staining with trypan blue using Vi-CELL analyzer (Beckman Counter). (B) Pancreatic CSCs were untreated (a) or treated with SAHA (b) or 5-Aza-dC (c) for 48 h, and apoptosis was measured by staining with annexin-PI using Accuri Flow Cytometer. (C) Caspase-3/7 activity was measured in pancreatic CSCs treated with SAHA (0.5 and 2 μM) or 5-Aza-dC (1 and 3 μM) for 25 h.
(A) Regulation of caspase-3/7 activity by EGCG. CSCs were treated with EGCG (0-60 μM) for 24 h, and caspase-3/7 activity was measured as per manufacturer's instructions. […] (B) Regulation of apoptosis by EGCG. CSCs were treated with EGCG (0-60 μM) for 48 h, and apoptosis was measured by TUNEL assay. […] (C) Regulation of apoptosis-related proteins. Pancreatic CSCs were treated with EGCG (0-60 μM) for 36 h. Real time PCR (q-RT-PCR) was performed to examine the expression of Bcl-2, survivin, XIAP, and GAPDH.
FIG. 42A and FIG. 42B show graphs showing quercetin synergizes with EGCG to inhibit self-renewal capacity, invasion, migration, and TCF/LEF and Gli transcriptional activities in pancreatic CSCs. (A) Effects of EGCG and quercetin on spheroid and colony formation. Upper Panel, uercetin synergizes with EGCG to inhibit spheroid's cell viability. CSCs were seeded in suspension and treated with EGCG (0-60 μM) with or without quercetin (20 μM) for 7 days. At the end of incubation period, all the spheroids were collected and resuspended. Cell viability was measured by trypan blue assay. […] Lower panel, uercetin synergizes with EGCG to inhibit colony formation. Pancreatic CSCs were seeded in soft agar and treated with various doses of EGCG (0-60 μM) with or without quercetin (20 μM) and incubated at […] for 21 days. At the end of incubation period, colonies were counted. […] (B) Effects of EGCG and quercetin on invasion and migration. Upper panel, Matrigel invasion assay. CSCs were plated onto the Matrigel-coated membrane in the top chamber of the transwell and treated with EGCG (0-60 μM) with or without quercetin (20 μM) for 48 hrs. Cells invaded to the lower chambered were fixed with methanol, stained with crystal violet and counted. […] Lower panel, Transwell migration assay. Pancreatic CSCs were plated in the top chamber of the transwell and treated with EGCG (0-60 μM) with or without quercetin (20 μM) for 48 hrs. Cells migrated to the lower chambered were fixed with methanol, stained with crystal violet and counted. […] (C) Quercetin synergizes with EGCG to induce apoptosis. CSCs were seeded in suspension and treated with EGCG (0-60 μM) with or without quercetin (20 μM) for 7 days. At the end of incubation period, all the spheroids were collected. Apoptosis was measured by TUNEL assay. […] (D) Effects of EGCG and quercetin on TCF/LEF and Gli transcriptional activities. Pancreatic CSCs were transduced with either lentivirus encoding TCF/LEF responsive GFP and luciferase genes or Gli-responsive GFP and luciferase genes. Transduced CSCs were treated with EGCG (40 μM) with or without quercetin (20 μM) for 48 hrs and the luciferase activity was measured.
Pancreatic CSCs were (a) untreated, (b) treated with SAHA, or (c) treated with 5-Aza-dC for 48 hours and apoptosis was measured by staining with annexin-PI using Accuri Flow Cytometer. The results of those studies are illustrated in FIG. 31B.
On the technique in general: In flow cytometry, cells or beads pass a laser one at a time.

The test system of test [2] is Pancreatic CSCs. Kind of test: cell viability, trypan blue, Vi-CELL analyzer. The format is cell-based, human. The method, then: Pancreatic CSCs were treated with resveratrol (0-20 μM), curcumin (0-20 μM), honokiol (0-20 μM) and diallyl trisulphide (0-20 μM) for 3 days, and cell viability was measured by staining with trypan blue using Vi-CELL analyzer (Beckman Counter).
Pancreatic CSCs were treated with sulforaphane (0-20 μM), rottlerin (0-2 μM), EGCG (0-60 μM) and embelin (0-5 μM) for 3 days, and cell viability was measured by staining with trypan blue using Vi-CELL analyzer (Beckman Counter).
as §1
Pancreatic CSCs were treated with resveratrol (0-20 μM), curcumin (0-20 μM), honokiol (0-20 μM), and diallyl trisulphide (0-20 μM) for 3 days and cell viability was measured by staining with trypan blue using Vi-CELL analyzer. The results of those studies are illustrated in FIG. 27.
Pancreatic CSCs were treated with sulforaphane (0-20 μM), rottlerin (0-2 μM), EGCG (0-60 μM), and embelin (0-5 μM) for 3 days and cell viability was measured by staining with trypan blue using Vi-CELL analyzer. The results of those studies are illustrated in FIG. 28.
Pancreatic CSCs were treated with SAHA […] Vorinostat (3 and 5 μM) and 5-Aza-2′-deoxycytidine (5-Aza-dC, 2 and 4 μM) and cell viability was measured at 48 hours by staining with trypan blue using Vi-CELL analyzer. The results of those studies are illustrated in FIG. 31A.

The subject of a further test is Breast CSCs. In words: cell viability by XTT assay. The class given is cell-based. The following applies: 3 days. As to the method:
Breast CSCs were seeded in 96-well plate and treated with sulforaphane, diallyl trisulphide, resveratrol and curcumin for 3 days. At the end of incubation period, CSCs were harvested and cell viability was measured by XTT assay.
Breast CSCs were seeded in 96-well plate and treated with rottlerin, EGCG, embelin, and honokiol for 3 days. At the end of incubation period, breast CSCs were harvested and cell viability was measured by XTT assay.
(A-D) Breast CSCs were treated with PITC (0-20 μM), BSC, (0-20 μM), sulforaphane (0-20 μM) and honokiol (0-10 μM) for 3 days, and cell viability was measured by XTT assay.
Breast CSCs were treated with rottlerin (0-1 μM) for 3 days, and cell viability was measured by XTT assay.
Breast CSCs were seeded in 96-well plate and treated with sulforaphane, diallyl trisulphide, resveratrol, and curcumin for 3 days and cell viability was measured by XTT assay. The results of those studies are illustrated in FIG. 29.
Breast CSCs were seeded in 96-well plate and treated with Rottlerin, EGCG, embelin, and honokiol for 3 days and cell viability was measured by XTT assay. The results of those studies are illustrated in FIG. 30.
In general terms: Tetrazolium dyes change colour on reduction, which living cells bring about.

In test [3] the test system is Pancreatic CSCs. In words: cell viability by XTT assay. The format is cell-based, human. The following applies: 3 days; BSC 0-20 μM, honokiol 0-10 μM. As to the method: (§2) (A-B) Pancreatic CSCs were treated with BSC (0-20 μM) and honokiol (0-10 μM); (C-D) Prostate CSCs were treated with PITC (0-20 μM) and BSC (0-20 μM) for 3 days. Cell viability was measured by XTT assay.

Test [4] concerns Prostate CSCs. Kind of test: cell viability by XTT assay. The following applies: 3 days; PITC 0-20 μM, BSC 0-20 μM. The class given is cell-based, human. As to the method: as §2
Another test deals with pancreatic cancer. The following applies: background statement; cited from earlier work.
Test [5] concerns Brain CSCs. Kind of test: cell viability, trypan blue, Vi-CELL analyzer. The class given is cell-based. The following applies: 3 days. The method, then: Brain CSCs were treated with resveratrol (0-20 μM), curcumin (0-20 μM), honokiol (0-20 μM) and diallyl trisulphide (0-10 μM) for 3 days, and cell viability was measured by staining with trypan blue using Vi-CELL analyzer (Beckman Counter).
Brain CSCs were treated with sulforaphane (0-20 μM), rottlerin (0-1 μM), EGCG (0-40 μM) and embelin (0-5 μM) for 48 h, and cell viability was measured by staining with trypan blue using Vi-CELL analyzer (Beckman Counter).
Brain CSCs were treated with resveratrol (0-20 μM), curcumin (0-20 μM) honokiol (0-20 μM), and diallyl trisulphide (0-10 μM) for 3 days and cell viability was measured by staining with trypan blue using Vi-CELL analyzer. The results of those studies are illustrated in FIG. 23.
Brain CSCs were treated with sulforaphane (0-20 μM), rottlerin (0-1 μM), EGCG (0-40 μM), and embelin (0-5 μM) for 48 hours and cell viability was measured by staining with trypan blue using Vi-CELL analyzer. The results of those studies are illustrated in FIG. 24.

Test [6] deals with Prostate CSCs. Kind of test: cell viability, trypan blue, Vi-CELL analyzer. The format is cell-based, human. The following applies: 3 days. As to the method: Prostate CSCs were treated with resveratrol (0-20 μM), curcumin (0-20 μM), honokiol (0-20 μM) and diallyl trisulphide (0-10 μM) for 3 days, and cell viability was measured by staining with trypan blue using Vi-CELL analyzer (Beckman Counter).
Prostate CSCs were treated with sulforaphane (0-20 μM), rottlerin (0-5 μM), EGCG (0-40 μM) and embelin (0-1 μM) for 3 days, and cell viability was measured by staining with trypan blue using Vi-CELL analyzer (Beckman Counter).
Prostate CSCs were treated with resveratrol (0-20 μM), curcumin (0-20 μM), honokiol (0-20 μM), and diallyl trisulphide (0-10 μM) for 3 days and cell viability was measured by staining with trypan blue using Vi-CELL analyzer. The results of those studies are illustrated in FIG. 25.
Prostate CSCs were treated with sulforaphane (0-20 μM), rottlerin (0-5 μM), EGCG (0-40 μM), and embelin (0-1 μM) for 3 days and cell viability was measured by staining with trypan blue using Vi-CELL analyzer. The results of those studies are illustrated in FIG. 26.

Test [7] relates to Brain CSCs. In words: cell viability by XTT assay. The class given is cell-based. The following applies: 3 days; 0-20 μM. As to the method: (A-B) Brain CSCs were treated with sulforaphane (0-20 μM), and honokiol (0-20 μM) for 3 days, and cell viability was measured by XTT assay.
[8] abbreviates: 48 h, SAHA 3 and 5 μM, 5-Aza-dc 2 and 4 μM.

As for `Nc1ncn([C@H]2C[C@H](O)[C@@H](CO)O2)c(=O)n1` [5-Aza-dC, 5-Aza-2′-deoxycytidine, reference compound], in the test on Pancreatic CSCs [1], the apoptosis entry is recorded as “promote apoptosis”. For the same molecule, in the test on Pancreatic CSCs [2] (setting [8]), the cell viability result was “inhibit cell viability”.

Take `N#C[Se]Cc1ccccc1` [BSC, benzyl selenocyanate]: the cell viability entry in the test with Breast CSCs, in the test with Pancreatic CSCs [3] and with Prostate CSCs [4] was “inhibit cell viability” throughout.

Turning to `Nc1ccn([C@@H]2O[C@H](CO)[C@@H](O)C2(F)F)c(=O)n1` [Gemcitabine], in the test with pancreatic cancer, the “pancreatic cancer patients in whom the drug is effective” value was 30% and the “survival of pancreatic cancer patients” value is listed as “less than 5 years”.

Regarding `S=C=Nc1ccccc1` [PITC, phenyl isothiocyanate], the cell viability result in the test with Breast CSCs and with Prostate CSCs [4] was “inhibit cell viability” in each case.

For the molecule `O=C(CCCCCCC(=O)Nc1ccccc1)NO` [SAHA, reference compound], the apoptosis result with Pancreatic CSCs [1] was “promote apoptosis”. Further, the cell viability result with Pancreatic CSCs [2] (setting [8]) is given as “inhibit cell viability”.

Consider `COc1cc(/C=C/C(=O)CC(=O)/C=C/c2ccc(O)c(OC)c2)ccc1O` [curcumin], for which the cell viability entry in the test on Pancreatic CSCs [2] (3 days), in the test on Brain CSCs [5], in the test with Prostate CSCs [6] and in the test on Breast CSCs was “inhibit cell viability” in each case.

Consider `C=CCSSSCC=C` [diallyl trisulphide], for which the cell viability result with Pancreatic CSCs [2] (3 days), with Brain CSCs [5], in the test on Prostate CSCs [6] and in the test with Breast CSCs was “inhibit cell viability” each time.

As to `C=CCc1ccc(O)c(-c2ccc(O)c(CC=C)c2)c1` [honokiol], the cell viability result in the test with Pancreatic CSCs [2] (3 days), in the test with Brain CSCs [5], in the test with Prostate CSCs [6], in the test with Breast CSCs, in the test with Pancreatic CSCs [3] and with Brain CSCs [7] was “inhibit cell viability” throughout.

`Oc1ccc(C=Cc2cc(O)cc(O)c2)cc1` [resveratrol]: the cell viability result in the test on Pancreatic CSCs [2] (3 days), with Brain CSCs [5], in the test with Prostate CSCs [6] and in the test with Breast CSCs was “inhibit cell viability” throughout.
